Series [1] has as its system blast crisis CML (AML) cells. Put plainly: Colony forming assay in methylcellulose media after Msi2 shRNA delivery. The series is classed as cell-based, mouse. Here is the method: Lineage negative, NUP98-HOXA9-YFP positive cells from AML were sorted and infected retrovirally with either Vector-IRES-GFP or Numb-IRES-GFP. After 48 hours of infection, cells were sorted and serially plated on complete methylcellulose medium (Methocult GF M3434 from StemCell Technologies).
(§1) To determine if inhibiting Msi2 could impact the growth of established CML, and to rule out the possibility that the reduced incidence of leukemia in Gt mutants was due to developmental defects and examine if Msi2 knockdown affects AML maintenance, Msi expression was targeted using an alternate shRNA approach. A lineage-negative population was sorted from full blown AML cells, which contains AML stem cells. Lin− cells from NUP98-HOXA9/BCR-ABL-induced blast crisis leukemias were infected with either an shRNA retrovirus targeting Msi2 (shMsi; SEQ ID NO: 9) or firefly luciferase (shLuc; SEQ ID NO: 10) as a negative control and resorted, and Msi2 expression was analyzed by realtime RT-PCR. […] Error bars represent s.e.m. of triplicate PCRs (**p<0.01).
As a control, shRNA against LacZ was used. Error bars represent s.e.m. of triplicate PCRs (**p<0.01). […] Error bars represent s.e.m. of triplicate assay wells (**p<0.01). […] Error bars represent s.e.m. of triplicate PCRs (**p<0.01).

Series [2] has as its system Msi2 transcript. Put plainly: Msi2 knockdown measured by realtime RT-PCR. Conditions: Lin− cells from NUP98-HOXA9/BCR-ABL blast crisis leukemias; compared with shLuc control. The series is classed as cell-based, mouse. On the procedure: RNA was isolated using RNAqueous-Micro (Ambion), levels were equalized, and RNA was converted to cDNA using Superscript II reverse transcriptase (Invitrogen). Quantitative real time PCRs were performed using an iCycler (BioRad) by mixing cDNAs, iQ SYBR Green Supermix (BioRad) and gene specific primers. Results were normalized to the level of beta-2-microglobulin (B2m). Primer sequences are as follows: Numb-F, […] (SEQ ID NO: 1); Numb-R, […] (SEQ ID NO: 2); Msi1-F, […] (SEQ ID NO: 3); Msi1-R, […] (SEQ ID NO: 4); Msi2-F, […] (SEQ ID NO: 5); Msi2-R, […] (SEQ ID NO: 6); B2m-F, […] (SEQ ID NO: 7); B2m-R, […] (SEQ ID NO: 8).
as §1

The subject of series [3] is blast crisis CML / AML. Put plainly: Transplantation of shRNA-infected blast crisis CML/AML cells into irradiated mice. The format is in vivo. From the text: Mouse models of CML were generated by transducing bone marrow stem and progenitor cells with retroviruses carrying BCR-ABL (chronic phase), or BCR-ABL and NUP98-HOXA9 (blast crisis phase) and transplanted into irradiated recipient mice. The development of CML was confirmed by flow cytometry and histopathology. Transgenic Notch reporter (TNR), Rag1−/−, and C57BL6/J were used as transplant donors, and C57Bl6/J CD45.1 and CD1 mice were used as transplant recipients. All mice were 8-12 weeks of age. Mice were bred and maintained on acidified water after transplantation in the animal care facility at Duke University Medical Center. All live animal experiments were performed according to protocols approved by the Duke University Institutional Animal Care and Use Committee. For Msi2 knockdown experiments, lineage negative blast crisis CML cells were infected with Msi2 or control Luciferase shRNA retroviral constructs and leukemia incidence monitored.
Bone marrow c-Kit+ or KLS cells from C57BL6/J or TNR mice were enriched and cultured overnight in X-vivo15 with 10% FBS, 50 μM 2-mercaptoethanol, 100 ng/mL SCF, and 20 ng/mL TPO in a 96 well U-bottom plate or 6 well plate. Subsequently, cells were infected with MSCV-BCR-ABL-IRES-YFP (or CFP) to generate CML, or MSCV-BCR-ABL-IRES-YFP (or CFP) and MSCV-NUP98-HOXA9-IRES-YFP (or NGFR) to generate AML. Cells were harvested 48 hours after infection and transplanted retro-orbitally into groups of 4-7 recipient mice. Recipients were lethally irradiated (10 Gy) for CML, and sublethally irradiated (7 Gy) for AML. For Numb overexpression, cells were infected with either MSCV-Numb-IRES-GFP (or hCD2) or MSCV-IRES-GFP (or hCD2) along with MSCV-BCR-ABL-IRES-YFP (or CFP) and MSCV-NUP98-HOXA9-IRES-NGFR (or YFP) and 20,000 to 100,000 sorted infected cells were transplanted per mouse. For secondary transplantation, cells from primary transplanted mice were sorted for either MSCV-Numb-IRES-GFP and MSCV-NUP98-HOXA9-YFP or MSCV-IRES-GFP and MSCV-NUP98-HOXA9-YFP, and 7,000 to 8,000 cells were transplanted per mouse. For ICN experiments, cells were infected with MSCV-ICN-IRES-CFP and MSCV-BCR-ABL-GFP, MSCV-ICN-IRES-CFP and MSCV-IRES-GFP, or MSCV-BCR-ABL-IRES-GFP and MSCV-IRES-CFP, and 10,000 to 20,000 KLS-derived or 200,000 to 500,000 c-kit+-derived sorted cells were transplanted per mouse. For the TNR mouse model, cells were infected with MSCV-BCR-ABL-IRES-YFP (or CFP) to generate CML or MSCV-BCR-ABL-IRES-YFP (or CFP) and MSCV-NUP98-HOXA9-IRES-NGFR to generate AML. 10,000 to 80,000 unsorted cells were transplanted per mouse. After transplantation, recipient mice were subsequently maintained on antibiotic water (sulfamethoxazole and trimethoprim) and evaluated daily for signs of morbidity, weight loss, failure to thrive, and splenomegaly. Premorbid animals were sacrificed by CO2 asphyxiation followed by cervical dislocation. Subsequently relevant tissues were harvested and analyzed by flow cytometry and histopathology.
Data shown is representative of two to three independent experiments.
The impact of Msi2 loss in AML propagation in vivo was also tested. Lin-negative cells from full blown AML were transduced either with an Msi2 shRNA retrovirus or luciferase shRNA virus, and the cells were transplanted into sublethally-irradiated mice. 11 of 13 mice transplanted with control knockdown AML became sick by 1 month post transplant.
Serial transplants were also done to test the presence of leukemia-initiating ability of control and Msi2 knockdown AML cells from the mice who suffered from leukemia.

Turning to “shMsi: shRNA retrovirus targeting Msi2, SEQ ID NO: 9, 5′-CCCAGATAGCCTTAGAGACTAT-3′”, the “colony growth in vitro” value in series [1] (established blast crisis CML cells, vs control shRNA) is given as “reduced colony growth in vitro”. The “reduction in the number of colonies formed” value in series [1] (methylcellulose media, Msi2 knockdown AML cells) is reported as 50-70%. The “reduction in Msi2 transcript levels” value in series [2] is 75-90%. Besides, the “AML incidence in serial transplants” value in series [3] (3000 or 10,000 cells transplanted) was “loss in AML incidence”. Also, the “mice surviving beyond 1 month” value in series [3] (Lin-negative AML cells transduced, sublethally irradiated mice, 11 of 13 control mice sick by 1 month) is “more than half”. Also, the “differentiation of leukemias that occurred” value in series [3] (Wright's stain of leukemic cells, primary transplant) is listed as “more differentiated”. The “ability to propagate disease (mice succumbing)” value in series [3] (mice transplanted with Lin− cells from primary shRNA expressing leukemias, control 87%) was 25%. The “disease incidence in vivo (survival curve)” value in series [3] (primary transplant of established blast crisis CML cells, vs shLuc) was “reduced disease incidence in vivo”. Also, the “transplanted leukemic cells in peripheral blood of surviving mice” value in series [3] (surviving mice) was “no detectable levels of transplanted leukemic cells”.

(Values after patent publication US10344276B2, “Diagnostic and treatment for chronic and acute phase myeloid leukemia” (Duke University, priority 2009, dated 2019).)
